Our source for the IC50 and inhibition values is patent EP0405748A1, “Phosphonoderivative of purine with antiviral activity” (Beecham Group p.l.c., priority 1989, dated 1991).

SMILES strings stand for the structures. Values after ≈ are worked out from the molar mass of the structure shown. Like-named read-outs stand apart in the source and are kept apart here.

Holding throughout (format): cell-based
In assay [1] the test system is herpes simplex virus 1 (HSV-1; HFEM strain). Briefly: Plaque Reduction Test for Herpes Simplex Virus 1. Particulars: Human alphaherpesvirus 1, Vero or MRC-5 cells, read-out: IC₅₀ against HSV-1 virus. How it is done: (§1) Vero or MRC-5 cells were grown to confluence in 24 well multi-dishes (well diameter = 1.5cm). The drained cell monolayers were each infected with approximately 50 infectious particles of herpes simplex virus 1 (HSV-1; HFEM strain) or herpes simplex virus 2 (HSV-2; strain MS) in 100µl of phosphate-buffered saline. The virus was adsorbed for 1 hour at room temperature. After adsorption, residual inoculum was removed from each well and replaced with 0.5ml of Eagle's MEM containing 5% newborn calf serum and 0.9% agarose (A37). Once the agarose had set, dilutions of the test compound, which had been prepared in Eagle's MEM (containing 5% newborn calf serum), were added, each well receiving 0.5ml of liquid overlay. The test compound was diluted to give the following series of concentrations: 200, 60, 20, 6....0.06µg/ml; final concentrations in the assay ranged, therefore, between 100µg/ml and 0.03µg/ml. The infected cultures were incubated at 37 °C in a humidified atmosphere of 5% CO₂ until plaques were clearly visible (2 or 3 days for Vero cells, usually 1 day for MRC-5 cells).
(§2) Cultures from 1 and 2 were fixed in formal saline, the agarose overlays were carefully washed off, and then the cell monolayers were stained with carbol fuchsin. A stereo microscope was used to count plaques. The IC₅₀ (concentration of drug which inhibits the number of plaques formed by 50% relative to the number of plaques observed in virus control monolayers) of the test compound was calculated. In addition, the monolayers were examined for evidence of drug-induced cytotoxicity; the minimum concentration at which cytotoxicity occurred was recorded.

Assay [2] relates to herpes simplex virus 2 (HSV-2; strain MS). Description: Plaque Reduction Test for Herpes Simplex Virus 2. Particulars: Human alphaherpesvirus 2, Vero or MRC-5 cells, read-out: IC₅₀ against HSV-2. How it is done:
as §1, §2

The test system of assay [3] is varicella zoster virus (VZV; Ellen strain). Briefly: Plaque Reduction Test for Varicella Zoster Virus. The settings on record: Human alphaherpesvirus 3, MRC5, MRC-5 cells, read-out: IC₅₀ against VZV. The protocol:
MRC-5 cells were grown to confluence in 24 well multi-dishes (well diameter = 1.5cm). The drained cell monolayers were each infected with approximately 50 infectious particles of varicella zoster virus (VZV; Ellen strain) in 100µl of phosphate-buffered saline. The virus was adsorbed for 1 hour at room temperature. After adsorption, residual inoculum was removed from each well and replaced with 0.5ml of Eagle's MEM containing 5% heat-inactivated foetal calf serum and 0.9% agarose (A37). Once the agarose had set, dilutions of the test compound, which had been prepared in Eagle's MEM (containing 5% heat-inactivated foetal calf serum), were added, each well receiving 0.5ml of liquid overlay. The test compound was diluted to give the following series of concentrations: 200, 60, 20, 6....0.06µg/ml; final concentrations in the assay ranged, therefore, between 100µg/ml and 0.03µg/ml. The infected cultures were incubated at 37 °C in a humidified atmosphere of 5% CO₂ until plaques were clearly visible (5 or 6 days).
as §2

The test system of assay [4] is cytomegalovirus (CMV; AD-169 strain). Description: Plaque Reduction Test for Cytomegalovirus. Particulars: Human betaherpesvirus 5, AD169, MRC5, MRC-5 cells, read-out: IC₅₀ against CMV. How it is done: MRC-5 cells were grown to confluence in 24 well multi-dishes (well diameter = 1.5cm). The drained cell monolayers were each infected with approximately 50 infectious particles of cytomegalovirus (CMV; AD-169 strain) in 100µl of phosphate-buffered saline. The virus wasadsorbed for 1 hour at room temperature. After adsorption, residual inoculum was removed from each well and replaced with 1ml of Eagle's MEM containing 10% heatinactivated foetal calf serum and 0.9% agarose (A37). Once the agarose had set, dilutions of the test compound, which had been prepared in Eagle's MEM (containing 10% heat-inactivated calf serum), wereadded, each well receiving 1ml of liquid overlay. The test compound was diluted to give the following series of concentrations: 200, 60, 20, 6....0.06µg/ml; final concentrations in the assay range, therefore, between 100µg/ml and 0.03µg/ml. The infected cultures were incubated at 37 °C in a humidified atmosphere containing 5% CO₂ until plaques were clearly visible (about 12days). The cultures are fixed in formol saline, the agarose overlays were carefully washed off, and then the cell monolayers were stained with carbol fuchsin. A stereo microscope was used to count plaques. The IC₅₀ (concentration of drug which inhibits the number of plaques formed by 50% relative to the number of plaques observed in virus control monolayers) of the test compound was calculated. In addition, the monolayers were examined for evidence of drug-induced cytotoxicity; the minimum concentration at which cytotoxicity occurs was recorded.

The subject of the next assay is HIV-1 strain virus. Briefly: HIV Suppression test in peripheral human lymphocytes (p24 ELISA and viral RNA hybridisation). Particulars: Human immunodeficiency virus 1, Lymphocyte; for inhibition at 1 µM: Concn. 1 µM; for inhibition at 10 µM: Concn. 10 µM. The protocol:
Peripheral human lymphocytes were prepared, cultivated, and harvested as above. Following the determination of the lymphocyte surface markers, unstimulated and mitogen stimulated cells were combined in a ratio of 1:2.
Under safety conditions these cells are infected with a standard preparation of HIV. The cells are sedimented by centrifugation. The supernatant was discarded and cells were resuspended in the HIV inoculum.
This inoculum is a liquid suspension of HIV-1 strain virus, pretested and adjusted to a titer that results in a synthesis of viral core protein p24 of >100 ng/ml at day four following infection of human lymphocytes according to the protocol.
3x10⁸ lymphocytes were resuspended in 1 ml HIV inoculum and incubated at 37 °C for 60 minutes. Subsequently, the cells were washed two times with 50 ml of culture medium and resuspended in culture medium containing 10 units/ml of human recombinant interleukin-2 to yield a cell concentration of 2x10⁶ cells/ml. 100µl of this cell suspension was added to each well of the microtiter plates containing the diluted solutions of the compounds. The microtiter plates were cultivated in an incubator with a humidified atmosphere and 5% CO₂ at 37 °C.
Accordingly, a fraction of lymphocytes was mock-infected with the same virus preparation that was heat inactivated (30 minutes at 56 °C) prior to infection.
On each of the days 2,3 and 4 post infection one of the microtiter plates which had been established in triplicate was prepared for determination of viral replication. Viral RNA is determined within the cells whereas the viral core protein p24 was detected in the supernatant of the lymphocyte culture.
Accordingly, 150 µl of supernatant were removed from each well and transferred to the well of a microtiter plate containing 50 µl/well of SDS (sodium dodecylsulfate, 0.08%). These plates were stored frozen. 50 µl of stop solution (1% SDS, 20mM sodium acetate, pH 5.0, and 200 µg/ml heparin) were added to the cells remaining in each well. The plates were stored frozen.
The concentration of p24 synthesized by the HIV infected cells was determined by means of a sandwich ELISA, while the concentration of viral RNA was quantitated by nucleic acid hybridisation, using a ³²P-labelled DNA probe for the gag/pol region of the viral genome. Absolute levels of viral antigen and RNA in drug treated samples were compared with untreated, virus-infected controls and the percentage inhibition calculated.

The mark [5] stands for this setting: 72 h, viral RNA, Day 3 after infection, read-out: % Inhibition on Days 3 and 4 after infection Viral RNA Day 3.
Where [6] appears, read: 72 h, viral core protein p24, Day 3 after infection, read-out: % Inhibition on Days 3 and 4 after infection Viral Anitgen Day 3.
The mark [7] stands for this setting: 96 h, viral RNA, Day 4 after infection, read-out: % Inhibition on Days 3 and 4 after infection Viral RNA Day 4.
Setting [8] is: 96 h, viral core protein p24, Day 4 after infection, read-out: % Inhibition on Days 3 and 4 after infection Viral Anitgen Day 4.

Consider `Nc1nc2c(ncn2OC[C@@H](CO)OCP(=O)(O)O)c(=O)[nH]1` [Example 1, (R)-9-[3-Hydroxy-2-(phosphonomethoxy)propoxy]quanine], for which the IC50 in assay [1] was determined as 7 µg/mL (≈ 20.9 µM); in assay [2], 10 µg/mL (≈ 29.8 µM); in assay [3], 17 µg/mL (≈ 50.7 µM); in assay [4], 3 µg/mL (≈ 8.95 µM). The inhibition at 1 µM in the assay on HIV-1 strain virus (setting [5]) came to 73%; in the assay on HIV-1 strain virus (setting [6]) it was 100%; in the assay with HIV-1 strain virus (setting [7]) it was 54%; in the assay with HIV-1 strain virus (setting [8]), 35%.
For `Nc1nc2c(ncn2OC[C@H]2COP(=O)(O)CO2)c(=O)[nH]1` [Example 2, (S)-9-[(2-Hydroxy-2-oxo-1,4,2-dioxaphosphorinan-5-yl)methoxy]quanine], the IC50 in assay [1] worked out at 21 µg/mL (≈ 66.2 µM); in assay [2], 15 µg/mL (≈ 47.3 µM); in assay [3], 13 µg/mL (≈ 41 µM); in assay [4], 3 µg/mL (≈ 9.46 µM). The inhibition at 10 µM in the assay with HIV-1 strain virus (setting [5]) was found to be 92%; with HIV-1 strain virus (setting [6]) it was 100%; in the assay with HIV-1 strain virus (setting [7]), 32%; with HIV-1 strain virus (setting [8]), 33%.
Turning to `Nc1ncnc2c1ncn2OC[C@@H](CO)OCP(=O)(O)O` [Example 3, (R)-9-[3-Hydroxy-2-(phosphonomethoxy)propoxy]adenine], the inhibition at 10 µM in the assay on HIV-1 strain virus (setting [5]) amounted to 83%; with HIV-1 strain virus (setting [6]), 80%; in the assay with HIV-1 strain virus (setting [7]), 90%; with HIV-1 strain virus (setting [8]), 91%.
Regarding `Nc1nc2c(ncn2OC[C@H](CO)OCP(=O)(O)O)c(=O)[nH]1` [Example 4, (S)-9-[3-Hydroxy-2-(phosphonomethoxy)propoxy]quanine], the IC50 stood at 25 µg/mL (≈ 74.6 µM) in assay [1], 23 µg/mL (≈ 68.6 µM) in assay [2], 52 µg/mL (≈ 155 µM) in assay [3] and 29 µg/mL (≈ 86.5 µM) in assay [4]. Moreover, the inhibition at 1 µM came out at 10% in the assay with HIV-1 strain virus (setting [5]), 54% in the assay on HIV-1 strain virus (setting [6]), 14% in the assay with HIV-1 strain virus (setting [7]) and 15% in the assay with HIV-1 strain virus (setting [8]).
`Nc1nc2c(ncn2OC[C@@H]2COP(=O)(O)CO2)c(=O)[nH]1` [Example 5, (R)-9-[(2-Hydroxy-2-oxo-1,4,2-dioxaphosphorinan-5-yl)methoxy]quanine]: the IC50 turned out to be 73 µg/mL (≈ 230 µM) in assay [1], 36 µg/mL (≈ 113 µM) in assay [2], 24 µg/mL (≈ 75.7 µM) in assay [3] and 17 µg/mL (≈ 53.6 µM) in assay [4]. The inhibition at 10 µM in the assay on HIV-1 strain virus (setting [5]) was determined as 64%; in the assay on HIV-1 strain virus (setting [6]), 50%; in the assay on HIV-1 strain virus (setting [7]) it was 0%; with HIV-1 strain virus (setting [8]) it was 7%.
